Data from ChEMBL document CHEMBL1201862, “PubChem BioAssay data set” (2004).
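Method: 48-hour compound exposure of cells in 96-well plates, five concentrations, linear interpolation of endpoints. GI50 is the concentration that inhibits growth by half.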 Activity calls are given as the source filed them. Cut-off read from the data, not from the text of the source: active = GI50 up to about 1.1 µM and inactive = higher.

Tests used:
Experiment in all cases: NCI-60 cell line screen, 48 h
OVCAR-5 = system: OVCAR-5
RPMI-8226 = system: RPMI-8226
MOLT-4 = system: MOLT-4
MDA-MB-231 = system: MDA-MB-231
HCT-116 = system: HCT-116
U-251 = system: U-251
NCI/ADR-RES = system: NCI/ADR-RES
SK-MEL-28 = system: SK-MEL-28
Malme-3M = system: Malme-3M
NCI-H522 = system: NCI-H522
SK-MEL-2 = system: SK-MEL-2
IGROV-1 = system: IGROV-1
TK-10 = system: TK-10
SK-MEL-5 = system: SK-MEL-5
HCC 2998 = system: HCC 2998
Hs-578T = system: Hs-578T
CCRF-CEM = system: CCRF-CEM
T47D = system: T47D
A498 = system: A498
SF-295 = system: SF-295

Compound	GI50 (OVCAR-5)	GI50 (RPMI-8226)	GI50 (MOLT-4)	GI50 (MDA-MB-231)	GI50 (HCT-116)	GI50 (U-251)	GI50 (NCI/ADR-RES)	GI50 (SK-MEL-28)	GI50 (Malme-3M)	GI50 (NCI-H522)	GI50 (SK-MEL-2)	GI50 (IGROV-1)	GI50 (TK-10)	GI50 (SK-MEL-5)	GI50 (HCC 2998)	GI50 (Hs-578T)	GI50 (CCRF-CEM)	GI50 (T47D)	GI50 (A498)	GI50 (SF-295)
CCOP(=O)(OCC)/C(C#N)=C/c1cccn1N(C)C	> 100 µM (inactive)	> 100 µM (inactive)	> 100 µM (inactive)	> 100 µM (inactive)	3.37 µM (inactive)	> 100 µM (inactive)	> 100 µM (inactive)	> 100 µM (inactive)	> 100 µM (inactive)	> 100 µM (inactive)	> 100 µM (inactive)	> 100 µM (inactive)	> 100 µM (inactive)	51.6 µM (inactive)	> 100 µM (inactive)	> 100 µM (inactive)	> 100 µM (inactive)	47.6 µM (inactive)	> 100 µM (inactive)	> 100 µM (inactive)
CC(=O)Oc1ccc2c(c1)c1c(=O)oc(N(C)C)nc1n2Cc1ccccc1	> 100 µM (inactive)	> 65 µM (inactive)	34 µM (inactive)	> 75.7 µM (inactive)	39.9 µM (inactive)	39 µM (inactive)	34.8 µM (inactive)	> 100 µM (inactive)	47.9 µM (inactive)	12.8 µM (inactive)	> 76.6 µM (inactive)	> 95.1 µM (inactive)	> 100 µM (inactive)	42 µM (inactive)	> 100 µM (inactive)	> 53.3 µM (inactive)	55.6 µM (inactive)	29.7 µM (inactive)	> 41.1 µM (inactive)	47.9 µM (inactive)
CC(C)(C)OC(=O)N1CC(CCl)c2ccc(O)cc21 (stereo not given)	3.27 µM (inactive)	1.75 µM (inactive)	1.3 µM (inactive)	2.53 µM (inactive)	2.64 µM (inactive)	3.15 µM (inactive)	1.59 µM (inactive)	2.09 µM (inactive)	1.64 µM (inactive)	0.612 µM (active)	1.7 µM (inactive)	3.84 µM (inactive)	2.4 µM (inactive)	1.35 µM (inactive)	0.0223 µM (active)	2.8 µM (inactive)	1.29 µM (inactive)	3.03 µM (inactive)	2.06 µM (inactive)	3.65 µM (inactive)
COCOC1/C=C/CCCCC(=O)C(C)C#CC1 (stereo not given)	12.8 µM (inactive)	1.46 µM (inactive)	2.09 µM (inactive)	4.73 µM (inactive)	1.86 µM (inactive)	14.4 µM (inactive)	4.18 µM (inactive)	12.4 µM (inactive)	1.98 µM (inactive)	1.53 µM (inactive)	5.81 µM (inactive)	3.65 µM (inactive)	8 µM (inactive)	8.87 µM (inactive)	7.89 µM (inactive)	20.3 µM (inactive)	1.87 µM (inactive)	2.76 µM (inactive)	10.7 µM (inactive)	16.6 µM (inactive)
CCOC(=O)NC(OCCN(C)C)(C(F)(F)F)C(F)(F)F	> 100 µM (inactive)	> 100 µM (inactive)	> 100 µM (inactive)	> 100 µM (inactive)	> 100 µM (inactive)	> 100 µM (inactive)	> 100 µM (inactive)	> 100 µM (inactive)	> 100 µM (inactive)	> 100 µM (inactive)	> 100 µM (inactive)	> 100 µM (inactive)	> 100 µM (inactive)	> 100 µM (inactive)	> 100 µM (inactive)	> 100 µM (inactive)	> 100 µM (inactive)	> 100 µM (inactive)	> 100 µM (inactive)	> 100 µM (inactive)
C=CCN1C(=O)/C(=C/c2ccc(OC)cc2)N=C1SC/C=C/C	> 100 µM (inactive)	26.2 µM (inactive)	20.3 µM (inactive)	57.8 µM (inactive)	25.4 µM (inactive)	35.1 µM (inactive)	39 µM (inactive)	87.7 µM (inactive)	34.8 µM (inactive)	28.1 µM (inactive)	31.5 µM (inactive)	> 100 µM (inactive)	> 100 µM (inactive)	18.3 µM (inactive)	63.2 µM (inactive)	50.1 µM (inactive)	26.4 µM (inactive)	12.6 µM (inactive)	23.9 µM (inactive)	41.3 µM (inactive)
CSc1c(C)[n+]([O-])c2cc(Cl)c(Cl)cc2[n+]1[O-]	17.4 µM (inactive)	9.73 µM (inactive)	2.38 µM (inactive)	20.2 µM (inactive)	16.4 µM (inactive)	21.9 µM (inactive)	17.8 µM (inactive)	19 µM (inactive)	16.9 µM (inactive)	12.2 µM (inactive)	19.9 µM (inactive)	14 µM (inactive)	20.6 µM (inactive)	17.7 µM (inactive)	18.8 µM (inactive)	24.2 µM (inactive)	2.32 µM (inactive)	20.8 µM (inactive)	21.6 µM (inactive)	> 56.8 µM (inactive)
O[C@@H]1[C@H](OC2c3ccccc3-c3ccccc32)[C@H](OCc2ccccc2)[C@@H]2OC[C@H]1O2	> 100 µM (inactive)	71.9 µM (inactive)	34.1 µM (inactive)	51.3 µM (inactive)	41.5 µM (inactive)	43.3 µM (inactive)	> 100 µM (inactive)	> 100 µM (inactive)	> 100 µM (inactive)	> 100 µM (inactive)	> 100 µM (inactive)	> 100 µM (inactive)	> 100 µM (inactive)	> 100 µM (inactive)	75.7 µM (inactive)	43.4 µM (inactive)	42.4 µM (inactive)	> 100 µM (inactive)	> 100 µM (inactive)	> 100 µM (inactive)
CC(=O)C(=Cc1ccc(C=C(C(C)=O)C(C)=O)cc1)C(C)=O	2.79 µM (inactive)	0.282 µM (active)	0.244 µM (active)	1.97 µM (inactive)	0.637 µM (active)	1.79 µM (inactive)	2.28 µM (inactive)	1.71 µM (inactive)	2.01 µM (inactive)	1.37 µM (inactive)	2.39 µM (inactive)	2.02 µM (inactive)	2.22 µM (inactive)	1.9 µM (inactive)	4.81 µM (inactive)	3.58 µM (inactive)	0.193 µM (active)	3.05 µM (inactive)	2.58 µM (inactive)	2.11 µM (inactive)
NNC(=O)Cc1cccnc1	> 100 µM (inactive)	> 100 µM (inactive)	> 100 µM (inactive)	> 100 µM (inactive)	> 100 µM (inactive)	> 100 µM (inactive)	> 100 µM (inactive)	> 100 µM (inactive)	> 100 µM (inactive)	> 100 µM (inactive)	> 100 µM (inactive)	> 100 µM (inactive)	> 100 µM (inactive)	> 100 µM (inactive)	> 100 µM (inactive)	> 100 µM (inactive)	> 100 µM (inactive)	> 100 µM (inactive)	> 100 µM (inactive)	> 100 µM (inactive)
Cc1cc2c(cc1-c1cc3c(cc1C)C(C(C)C)=C(O)C(=O)/C3=C\Nc1ccccn1)/C(=C/Nc1ccccn1)C(=O)C(O)=C2C(C)C	> 100 µM (inactive)	21.7 µM (inactive)	25.7 µM (inactive)	94.6 µM (inactive)	64.7 µM (inactive)	34.4 µM (inactive)	27.9 µM (inactive)	58.2 µM (inactive)	21.6 µM (inactive)	21.8 µM (inactive)	37.8 µM (inactive)	31.1 µM (inactive)	> 100 µM (inactive)	30.3 µM (inactive)	22.5 µM (inactive)	32 µM (inactive)	12.2 µM (inactive)	> 100 µM (inactive)	> 100 µM (inactive)	49.9 µM (inactive)
CC(C)OC(=S)Nc1ccc(Cl)c(/C=N/OC(C)(C)C)c1	16 µM (inactive)	18.1 µM (inactive)	15.6 µM (inactive)	14.9 µM (inactive)	15.4 µM (inactive)	17.1 µM (inactive)	11.9 µM (inactive)	21.7 µM (inactive)	16.7 µM (inactive)	15.7 µM (inactive)	18.5 µM (inactive)	17.5 µM (inactive)	12.4 µM (inactive)	16.2 µM (inactive)	19.6 µM (inactive)	16.6 µM (inactive)	15.9 µM (inactive)	15.7 µM (inactive)	12.6 µM (inactive)	13.5 µM (inactive)
C=C(C(=O)O[C@H]1C(=O)C2=C(C)CCC3C(=C)C(=O)O[C@@H]3C2[C@]1(C)O)C1CC[C@]2(C)CCCC(=C)[C@H]2C1 (stereo not given in full)	17.7 µM (inactive)	3.46 µM (inactive)	2.21 µM (inactive)	5.78 µM (inactive)	3.28 µM (inactive)	4.94 µM (inactive)	7.38 µM (inactive)	5.92 µM (inactive)	8.83 µM (inactive)	3.53 µM (inactive)	8.45 µM (inactive)	4.62 µM (inactive)	2.55 µM (inactive)	12.2 µM (inactive)	1.91 µM (inactive)	4.61 µM (inactive)	< 0.01 µM (active)	4.25 µM (inactive)	10.7 µM (inactive)	15.5 µM (inactive)
